Assay results published in patent publication US20190233906A1, “MUTANT STRAINS OF STAPHYLOCOCCUS AUREUS WITH MULTIPLE INACTIVATED TCS SYSTEMS” (priority 2015, published 2019).
Marks after values point to notes of the source that are not given here.

What was measured:
[1] = test system: arlR-dependent protein A; experiment: Protein A expression by Western blotting on stimulation of GraS; format: cell-based, Staphylococcus aureus; details: 50 μg of colistin
Protocol: Overnight cultures of the strains were diluted in TSB-gluc to an OD650nm=0.1 and 50 μl of the diluted cultures were mixed with 1950 μl of chemically defined medium HHWm (Hussain-Hastings-White modified medium) (Toledo-Arana et al., 2005) to inoculate sterile 24-well polystyrene microtitre plates (Costar). Plates were incubated at 37° C. for 24 hours, trying to mimic biofilm forming conditions. […] of bacterial cultures were centrifuged and pellets were resuspended in 60 μl PBS. Then, 2 μl of Lysostaphin 1 mg/ml (Sigma) and 3 μl of DNase I 1 mg/ml (Sigma) were added. After 2 h of incubation at 37° C. cell lysates were centrifuged and supernatants were collected. Protein concentration was determined with the Bio-Rad protein assay (Bio-Rad). Samples were adjusted to 3-5 μg of total protein and one volume of Laemmli buffer was added. Total protein extracts were denatured by boiling at 100° C. for 5 min. Proteins were separated on 10% SDS-polyacrylamide gels and stained with 0.25% Coomassie brilliant blue R250 (Sigma) as loading controls. For Western blotting, proteins were transferred onto Hybond-ECL nitrocellulose membranes (Amersham Biosciences) by semi-dry electroblotting. […] Protein A was detected with the SuperSignal West Pico Chemiluminescent Substrate (Thermo Scientific). • Construction of the Bap-Snap-ClfA Quimeric Protein and Expression in S. aureus ΔXVI

[2] = test system: ArlR response regulator of the arlRS two-component system of S. aureus MW2
[3] = test system: ArlR D52A (non-phosphorylatable ArlR allele)
[4] = test system: S. aureus 8325; format: cell-based, Staphylococcus aureus; details: strain 8325; as to Antimicrobial susceptibility (R/S): key: R: resistant; S: susceptible
Protocol: (§1) Antibiotic sensitivity tests were performed at the University Clinic of Navarra. Antibiotics routinely used in clinic for treatment of S. aureus infections were tested by VITEK 2 system. • Growth Kinetics Analysis

[5] = test system: S. aureus MW2; format: cell-based, Staphylococcus aureus; details: strain MW2; also: key: R: resistant; S: susceptible
Protocol: as §1

[6] = test system: S. aureus 8325 ΔXV; experiment: Antimicrobial susceptibility test (VITEK 2 system); format: cell-based, Staphylococcus aureus; details: for Susceptibility of 8325 ΔXV mutant compared with parental strain: 8325 ΔXV vs 8325; for Antimicrobial susceptibility (R/S) / MIC, Minimal inhibitory concentration: strain 8325 ΔXV; as to Antimicrobial susceptibility (R/S): key: R: resistant; S: susceptible
Protocol: as §1

[7] = test system: S. aureus MW2 ΔXV; experiment: Antimicrobial susceptibility test (VITEK 2 system); format: cell-based, Staphylococcus aureus; details: strain MW2 ΔXV; also: key: R: resistant; S: susceptible
Protocol: as §1

Row | Molecule | Antimicrobial susceptibility (R/S) [4] | Antimicrobial susceptibility (R/S) [5] | Antimicrobial susceptibility (R/S) [6] | Antimicrobial susceptibility (R/S) [7] | also measured
1 | colistin |  |  |  |  | Expression of protein A ([1]; arlRS graSR double mutant): but not in arlRS graSR double mutant; Expression of protein A ([1]; wild type and single arlRS mutant): activation of the expression of protein A was observed
2 | ArlS histidine kinase of the arlRS two-component system of S. aureus MW2 |  |  |  |  | Protein A expression by Western blotting [2]: They first confirmed that phosphorylation of ArlR by ArlS was necessary to induce protein A expression; Protein A expression by Western blotting in ΔXV strain complemented with arlR plus one HK [2]: In addition to ArlS itself, GraS is able to restore protein A expression in ΔXV strain
3 | GraS histidine kinase of the graXRS two-component system of S. aureus MW2 |  |  |  |  | Protein A expression by Western blotting in ΔXV strain [3]: substitution of ArlR wild type by the non-phosphorylatable ArlRD52A allele suppresses the cross-talk; Protein A expression by Western blotting with 50 µg/ml colistin [3]: activation of protein A expression was absent when the ArlR phosphate accepting aspartate was mutated; Protein A expression by Western blotting in ΔXV strain complemented with arlR plus one HK [2]: In addition to ArlS itself, GraS is able to restore protein A expression in ΔXV strain
4 | ArlS H242A (ArlS allele that keeps phosphatase activity but cannot phosphorylate ArlR) |  |  |  |  | Protein A expression by Western blotting in arlRS mutant [2]: The resulting strain showed a level of expression of protein A similar to that of the strain complemented with ArlR alone
5 | histidine kinase of the srrAB two-component system of S. aureus MW2 (SrrB by Table 1; printed 'SrrA' in the sentence) |  |  |  |  | Protein A expression in ΔXV strain complemented with arlR plus one HK [2]: mainly GraS and to a lower level SrrA were able to activate ArlR
6 | C[C@@H]1O[C@@H]1P(=O)(O)O [Fosfomycin] | S | S | S | S | MIC, Minimal inhibitory concentration [4]: (16)^a; Susceptibility of 8325 ΔXV mutant compared with parental strain [6]: higher susceptibility; MIC, Minimal inhibitory concentration [6]: (≤8)^a
7 | CC[C@H]1OC(=O)[C@H](C)[C@@H](O[C@H]2C[C@@](C)(OC)[C@@H](O)[C@H](C)O2)[C@H](C)[C@@H](O[C@@H]2O[C@H](C)C[C@H](N(C)C)[C@H]2O)[C@](C)(O)C[C@@H](C)CN(C)[C@H](C)[C@@H](O)[C@]1(C)O [Azithromycin] | S | S | S | S | 
8 | CN[C@H](CC(C)C)C(=O)N[C@H]1C(=O)N[C@@H](CC(N)=O)C(=O)N[C@H]2C(=O)N[C@H]3C(=O)N[C@H](C(=O)N[C@H](C(=O)O)c4cc(O)cc(O)c4-c4cc3ccc4O)[C@H](O)c3ccc(c(Cl)c3)Oc3cc2cc(c3O[C@@H]2O[C@H](CO)[C@@H](O)[C@H](O)[C@H]2O[C@H]2C[C@](C)(N)[C@H](O)[C@H](C)O2)Oc2ccc(cc2Cl)[C@H]1O [Vancomycin] | S | S | S | S | MIC, Minimal inhibitory concentration [4]: (1)^a; Susceptibility of 8325 ΔXV mutant compared with parental strain [6]: higher susceptibility; MIC, Minimal inhibitory concentration [6]: (≤0.5)^a
9 | Teicoplanin | S | S | S | S | 
10 | C/C(=C\C(=O)OCCCCCCCCC(=O)O)C[C@@H]1OC[C@H](C[C@@H]2O[C@H]2[C@@H](C)[C@H](C)O)[C@@H](O)[C@H]1O [Mupirocin] | S | S | S | S | 
11 | CC1(C)S[C@@H]2[C@H](NC(=O)[C@H](N)c3ccccc3)C(=O)N2[C@H]1C(=O)O [Ampicillin] | R | R | S | R | Susceptibility of 8325 ΔXV mutant compared with parental strain [6]: higher susceptibility
12 | CC(=O)OCC1=C(C(=O)O)N2C(=O)[C@@H](NC(=O)Cc3cccs3)[C@H]2SC1 [Cefalotin] | S | R | S | R | 
